Measurements reported in ChEMBL document CHEMBL1909046, “DrugMatrix in vitro pharmacology data”.
Where a SMILES comes first, the peptide text is derived from it. Bridges are numbered along the chain shown (N, C = ends). [ ]: non-standard residue; d: D form. The star is where a group is joined. Ileψ(thiazoline)Cys = CC[C@H](C)[C@H](N)C1=N[C@H](C(=O)*)CS1; dOrn = NCCC[C@@H](N)C(=O)O

Columns and labels:
[1] = target: Receptor tyrosine-protein kinase erbB-2 (Homo sapiens, UniProt P04626); test: biochemical; assay type: cell-based, Insect cells; conditions: insect cells;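 further: inhibition of HER2 kinase enzyme activity, measured with Poly(Glu:Tyr) as the phosphorylation substrate; in other assays of this panel Not Active means under 50% inhibition at 10 µM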
[2] = target: Beta-3 adrenergic receptor (Homo sapiens, UniProt P13945); test: DRUGMATRIX: Adrenergic beta3 radioligand binding (ligand: [125I] Cyanopindolol); assay type: cell membranes, HEK293, Membrane; conditions: hek293; Not Active = under 50% inhibition at 10 µM
[3] = target: Vasopressin V1a receptor (Homo sapiens, UniProt P37288); assay type: cell membranes, Membrane; conditions: hek293; further: in other assays of this panel Not Active means under 50% inhibition at 10 µM
[4] = target: T1, Alpha-1B adrenergic receptor (Rattus norvegicus, UniProt P15823); test: DRUGMATRIX: Alpha-1B adrenergic receptor radioligand binding (ligand: prazosin); assay type: cell membranes, Wistar, Liver, Membrane; conditions: Not Active = under 50% inhibition at 10 µM
T1 sequence (P15823 whole entry): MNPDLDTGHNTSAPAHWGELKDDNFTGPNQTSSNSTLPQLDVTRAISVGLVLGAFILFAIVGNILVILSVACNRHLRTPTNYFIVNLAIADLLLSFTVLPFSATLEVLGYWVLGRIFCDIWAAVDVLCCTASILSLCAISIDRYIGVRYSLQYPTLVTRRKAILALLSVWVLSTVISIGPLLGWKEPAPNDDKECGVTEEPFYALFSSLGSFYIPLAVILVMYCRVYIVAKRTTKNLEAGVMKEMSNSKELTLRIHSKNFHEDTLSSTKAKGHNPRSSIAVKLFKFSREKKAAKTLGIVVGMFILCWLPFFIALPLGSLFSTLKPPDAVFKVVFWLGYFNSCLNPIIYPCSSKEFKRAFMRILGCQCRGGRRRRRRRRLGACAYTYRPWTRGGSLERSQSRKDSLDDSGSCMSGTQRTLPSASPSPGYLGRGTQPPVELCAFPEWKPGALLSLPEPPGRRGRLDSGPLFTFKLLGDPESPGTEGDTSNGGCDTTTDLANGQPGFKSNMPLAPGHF

[5] = DRUGMATRIX: Glutamate, AMPA radioligand binding (ligand: [3H] AMPA); assay type: cell membranes, Rattus norvegicus, Wistar, Cerebral cortex, Membrane; conditions: Not Active = under 50% inhibition at 10 µM
[6] = target: T2, Neuropeptide Y receptor type 2 (Homo sapiens, UniProt P49146); assay type: cell membranes, Membrane; conditions: kan-ts; further: in other assays of this panel Not Active means under 50% inhibition at 10 µM
T2 sequence (P49146 whole entry): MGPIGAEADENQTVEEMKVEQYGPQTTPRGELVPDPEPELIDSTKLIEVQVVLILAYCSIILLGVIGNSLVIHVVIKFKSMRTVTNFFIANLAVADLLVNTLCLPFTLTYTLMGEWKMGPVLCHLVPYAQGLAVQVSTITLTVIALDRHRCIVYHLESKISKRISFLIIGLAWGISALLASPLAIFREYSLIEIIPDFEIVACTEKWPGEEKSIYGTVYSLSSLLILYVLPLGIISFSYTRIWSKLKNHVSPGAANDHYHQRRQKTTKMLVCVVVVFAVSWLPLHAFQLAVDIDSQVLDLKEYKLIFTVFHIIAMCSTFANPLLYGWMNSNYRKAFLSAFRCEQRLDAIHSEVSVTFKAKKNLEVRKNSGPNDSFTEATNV

[7] = target: Mitogen-activated protein kinase 3 (Homo sapiens, UniProt P27361); test: DRUGMATRIX: Protein Serine/Threonine Kinase, ERK1 enzyme inhibition (substrate: Myelin Basic Protein); design: species or system Escherichia coli; conditions: Not Active = under 50% inhibition at 10 µM
[8] = target: T3, Alpha-1D adrenergic receptor (Homo sapiens, UniProt P25100); assay type: cell membranes, HEK293, Membrane; conditions: hek293; further: in other assays of this panel Not Active means under 50% inhibition at 10 µM
T3 sequence (P25100 whole entry): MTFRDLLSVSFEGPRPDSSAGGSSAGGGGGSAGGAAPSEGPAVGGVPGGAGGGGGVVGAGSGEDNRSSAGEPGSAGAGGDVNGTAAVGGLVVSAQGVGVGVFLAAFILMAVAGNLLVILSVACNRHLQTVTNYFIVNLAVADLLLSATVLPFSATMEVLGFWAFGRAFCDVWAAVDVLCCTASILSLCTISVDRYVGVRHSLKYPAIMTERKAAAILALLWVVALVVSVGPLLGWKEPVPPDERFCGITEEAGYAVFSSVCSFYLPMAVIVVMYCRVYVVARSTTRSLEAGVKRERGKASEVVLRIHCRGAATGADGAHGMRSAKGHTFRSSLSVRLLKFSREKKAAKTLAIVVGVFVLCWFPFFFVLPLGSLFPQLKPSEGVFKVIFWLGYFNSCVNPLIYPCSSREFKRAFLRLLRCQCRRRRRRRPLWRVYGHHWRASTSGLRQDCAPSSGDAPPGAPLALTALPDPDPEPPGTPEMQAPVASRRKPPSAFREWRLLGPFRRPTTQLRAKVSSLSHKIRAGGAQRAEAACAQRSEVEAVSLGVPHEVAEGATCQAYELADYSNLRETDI

[9] = target: Tyrosine-protein kinase Lck (Homo sapiens, UniProt P06239); test: DRUGMATRIX: Protein Tyrosine Kinase, LCK enzyme inhibition (substrate: Poly(Glu:Tyr)); assay type: cell-based, Insect cells; conditions: insect cells; Not Active = under 50% inhibition at 10 µM
[10] = target: 5-hydroxytryptamine receptor 2B (Homo sapiens, UniProt P41595); assay type: cell membranes, CHO-K1, Membrane; conditions: cho-k1; further: in other assays of this panel Not Active means under 50% inhibition at 10 µM
[11] = DRUGMATRIX: GABAA, Chloride Channel, TBOB radioligand binding (ligand: [3H] TBOB); assay type: cell membranes, Rattus norvegicus, Wistar, Cerebral cortex, Membrane; conditions: Not Active = under 50% inhibition at 10 µM

5-hydroxytryptamine receptor 2B, sequence (P41595 whole entry): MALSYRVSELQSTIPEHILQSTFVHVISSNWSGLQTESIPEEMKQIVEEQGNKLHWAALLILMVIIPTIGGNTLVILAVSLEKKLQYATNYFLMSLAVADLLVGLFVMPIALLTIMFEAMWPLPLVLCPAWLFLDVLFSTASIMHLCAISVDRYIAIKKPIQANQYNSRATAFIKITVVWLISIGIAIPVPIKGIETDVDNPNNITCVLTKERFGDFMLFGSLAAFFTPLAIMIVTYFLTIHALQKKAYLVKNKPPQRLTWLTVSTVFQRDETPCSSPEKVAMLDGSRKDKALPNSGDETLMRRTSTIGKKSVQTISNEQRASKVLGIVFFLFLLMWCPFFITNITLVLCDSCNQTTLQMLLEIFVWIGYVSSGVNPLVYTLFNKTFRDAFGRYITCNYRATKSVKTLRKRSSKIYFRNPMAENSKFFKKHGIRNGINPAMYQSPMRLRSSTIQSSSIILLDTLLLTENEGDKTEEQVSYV
Tyrosine-protein kinase Lck, sequence (P06239 whole entry): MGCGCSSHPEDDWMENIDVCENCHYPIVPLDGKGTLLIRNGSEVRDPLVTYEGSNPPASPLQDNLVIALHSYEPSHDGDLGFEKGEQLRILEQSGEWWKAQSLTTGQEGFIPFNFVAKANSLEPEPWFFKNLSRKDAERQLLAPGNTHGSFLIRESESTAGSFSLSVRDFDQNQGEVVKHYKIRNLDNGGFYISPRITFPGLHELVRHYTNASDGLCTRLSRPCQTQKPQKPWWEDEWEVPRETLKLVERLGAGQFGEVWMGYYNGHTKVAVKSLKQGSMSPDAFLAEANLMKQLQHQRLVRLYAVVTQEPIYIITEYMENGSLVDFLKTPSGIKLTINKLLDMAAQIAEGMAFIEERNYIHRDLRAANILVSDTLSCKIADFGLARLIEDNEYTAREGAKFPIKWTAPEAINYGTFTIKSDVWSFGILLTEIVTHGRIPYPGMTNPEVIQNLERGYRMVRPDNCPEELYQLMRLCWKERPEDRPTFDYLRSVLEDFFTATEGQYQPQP
Beta-3 adrenergic receptor, sequence (P13945 whole entry): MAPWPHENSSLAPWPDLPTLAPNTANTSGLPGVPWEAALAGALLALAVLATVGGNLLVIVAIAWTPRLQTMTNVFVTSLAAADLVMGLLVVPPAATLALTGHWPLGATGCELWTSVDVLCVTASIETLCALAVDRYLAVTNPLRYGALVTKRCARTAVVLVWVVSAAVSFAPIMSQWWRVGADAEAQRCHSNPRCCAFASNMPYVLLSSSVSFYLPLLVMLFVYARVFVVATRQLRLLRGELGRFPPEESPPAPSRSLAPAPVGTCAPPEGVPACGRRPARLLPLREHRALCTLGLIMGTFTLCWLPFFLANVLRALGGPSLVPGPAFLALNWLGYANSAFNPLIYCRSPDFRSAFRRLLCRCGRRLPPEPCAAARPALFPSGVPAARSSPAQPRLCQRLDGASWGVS
Mitogen-activated protein kinase 3, sequence (P27361 whole entry): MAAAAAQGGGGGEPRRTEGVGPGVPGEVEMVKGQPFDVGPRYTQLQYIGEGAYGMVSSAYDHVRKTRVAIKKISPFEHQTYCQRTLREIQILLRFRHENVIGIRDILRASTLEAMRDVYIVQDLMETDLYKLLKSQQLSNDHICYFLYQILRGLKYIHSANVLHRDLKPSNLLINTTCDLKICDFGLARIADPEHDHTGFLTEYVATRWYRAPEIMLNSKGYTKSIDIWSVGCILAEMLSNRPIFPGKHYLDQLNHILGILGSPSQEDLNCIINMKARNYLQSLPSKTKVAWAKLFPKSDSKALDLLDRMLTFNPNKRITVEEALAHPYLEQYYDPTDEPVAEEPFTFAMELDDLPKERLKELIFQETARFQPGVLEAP
Vasopressin V1a receptor, sequence (P37288 whole entry): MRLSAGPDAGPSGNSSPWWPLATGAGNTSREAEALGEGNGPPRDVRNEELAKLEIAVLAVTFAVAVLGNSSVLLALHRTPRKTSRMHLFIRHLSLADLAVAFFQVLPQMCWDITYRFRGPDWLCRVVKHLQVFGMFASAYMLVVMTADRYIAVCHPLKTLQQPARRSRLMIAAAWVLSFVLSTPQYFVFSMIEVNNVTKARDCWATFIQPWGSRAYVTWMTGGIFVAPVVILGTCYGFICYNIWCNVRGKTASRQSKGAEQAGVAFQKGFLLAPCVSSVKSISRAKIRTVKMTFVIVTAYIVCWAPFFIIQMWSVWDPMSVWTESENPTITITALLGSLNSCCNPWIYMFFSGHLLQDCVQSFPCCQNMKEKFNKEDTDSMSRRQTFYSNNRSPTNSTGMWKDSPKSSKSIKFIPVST
Receptor tyrosine-protein kinase erbB-2, sequence (P04626 whole entry): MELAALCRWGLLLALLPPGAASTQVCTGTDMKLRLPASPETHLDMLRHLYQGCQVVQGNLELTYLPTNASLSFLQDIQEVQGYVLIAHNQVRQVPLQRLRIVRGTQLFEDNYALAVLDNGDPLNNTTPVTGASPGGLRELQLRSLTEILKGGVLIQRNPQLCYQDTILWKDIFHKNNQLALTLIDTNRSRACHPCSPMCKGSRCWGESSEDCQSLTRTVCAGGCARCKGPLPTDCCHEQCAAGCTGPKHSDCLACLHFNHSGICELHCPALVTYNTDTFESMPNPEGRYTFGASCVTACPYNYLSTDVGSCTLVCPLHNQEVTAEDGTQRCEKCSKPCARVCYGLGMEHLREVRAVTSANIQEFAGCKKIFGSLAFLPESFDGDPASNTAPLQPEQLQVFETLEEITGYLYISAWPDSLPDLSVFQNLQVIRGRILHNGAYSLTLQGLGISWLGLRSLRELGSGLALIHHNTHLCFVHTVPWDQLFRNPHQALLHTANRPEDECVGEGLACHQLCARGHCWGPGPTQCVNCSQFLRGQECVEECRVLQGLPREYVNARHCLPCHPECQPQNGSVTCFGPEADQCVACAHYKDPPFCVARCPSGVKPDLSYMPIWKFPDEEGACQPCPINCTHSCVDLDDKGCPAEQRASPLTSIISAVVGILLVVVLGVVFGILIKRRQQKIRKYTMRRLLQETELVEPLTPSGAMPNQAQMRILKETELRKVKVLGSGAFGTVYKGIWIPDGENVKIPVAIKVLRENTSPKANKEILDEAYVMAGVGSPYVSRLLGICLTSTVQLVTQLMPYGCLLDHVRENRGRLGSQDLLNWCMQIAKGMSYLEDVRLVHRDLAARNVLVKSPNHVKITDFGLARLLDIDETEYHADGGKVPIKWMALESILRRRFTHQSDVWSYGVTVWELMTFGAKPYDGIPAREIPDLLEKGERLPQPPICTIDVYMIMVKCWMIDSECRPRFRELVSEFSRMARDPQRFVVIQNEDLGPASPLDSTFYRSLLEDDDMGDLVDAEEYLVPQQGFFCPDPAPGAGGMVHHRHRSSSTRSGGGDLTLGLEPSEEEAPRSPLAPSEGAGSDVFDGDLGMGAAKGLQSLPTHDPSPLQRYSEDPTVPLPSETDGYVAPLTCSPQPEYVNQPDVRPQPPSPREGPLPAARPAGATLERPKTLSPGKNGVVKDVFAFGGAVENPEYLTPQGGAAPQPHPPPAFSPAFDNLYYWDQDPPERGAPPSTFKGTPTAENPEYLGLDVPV

CC1(C)[C@@H](O[C@H]2O[C@H](C(=O)O)[C@@H](O)[C@H](O)[C@H]2O[C@@H]2O[C@H](C(=O)O)[C@@H](O)[C@H](O)[C@H]2O)CC[C@]2(C)[C@H]3C(=O)C=C4[C@@H]5C[C@@](C)(C(=O)O)CC[C@]5(C)CC[C@@]4(C)[C@]3(C)CC[C@@H]12 [GLYCYRRHIZIN]
Not Active: IC50 [1] | IC50 [2] | IC50 [3] | IC50 [4] | IC50 [5] | Ki [5] | IC50 [6] | IC50 [7] | IC50 [8] | IC50 [9] | IC50 [10] | IC50 [11] | Ki [11]

CCc1cccc2c3c([nH]c12)C(CC)(CC(=O)O)OCC3 (centres undefined) [ETODOLAC]
Not Active: IC50 [1] | IC50 [2] | IC50 [3] | IC50 [4] | IC50 [5] | Ki [5] | IC50 [6] | IC50 [7] | IC50 [8] | IC50 [9] | IC50 [10] | IC50 [11] | Ki [11]

CC1(C)S[C@@H]2[C@H](NC(=O)[C@H](N)c3ccc(O)cc3)C(=O)N2[C@H]1C(=O)O [AMOXICILLIN]
Not Active: IC50 [1] | IC50 [2] | IC50 [3] | IC50 [4] | IC50 [5] | Ki [5] | IC50 [6] | IC50 [7] | IC50 [8] | IC50 [9] | IC50 [10] | IC50 [11] | Ki [11]

CC(=O)[C@@]1(O)CC[C@H]2[C@@H]3C[C@H](C)C4=CC(=O)C=C[C@]4(C)[C@@]3(F)[C@@H](O)C[C@@]21C [FLUOROMETHOLONE]
Not Active: IC50 [1] | IC50 [2] | IC50 [3] | IC50 [4] | IC50 [5] | Ki [5] | IC50 [6] | IC50 [7] | IC50 [8] | IC50 [9] | IC50 [10] | IC50 [11] | Ki [11]

CC[C@H](C)[C@H](N)C1=N[C@H](C(=O)N[C@@H](CC(C)C)C(=O)N[C@H](CCC(=O)O)C(=O)N[C@H](C(=O)N[C@H]2CCCCNC(=O)[C@H](CC(N)=O)NC(=O)[C@@H](CC(=O)O)NC(=O)[C@H](Cc3cnc[nH]3)NC(=O)[C@@H](Cc3ccccc3)NC(=O)[C@H]([C@@H](C)CC)NC(=O)[C@@H](CCCN)NC2=O)[C@@H](C)CC)CS1 [BACITRACIN] ({Ileψ(thiazoline)Cys}-L[dE]IK[dOrn]I[dF]H[dD]N; lactam 4-C)
Not Active: IC50 [1] | IC50 [2] | IC50 [3] | IC50 [4] | IC50 [5] | Ki [5] | IC50 [6] | IC50 [7] | IC50 [8] | IC50 [10] | IC50 [11] | Ki [11]

N=C(N)NCCCCNC(=N)N.O=S(=O)(O)O [ARCAINE SULFATE]
Not Active: IC50 [1] | IC50 [2] | IC50 [3] | IC50 [4] | IC50 [5] | Ki [5] | IC50 [6] | IC50 [7] | IC50 [8] | IC50 [9] | IC50 [10] | IC50 [11] | Ki [11]

Oc1cccc2cccnc12 [OXYQUINOLINE]
Not Active: IC50 [1] | IC50 [2] | IC50 [3] | IC50 [4] | IC50 [5] | Ki [5] | IC50 [6] | IC50 [7] | IC50 [8] | IC50 [9] | IC50 [10] | IC50 [11] | Ki [11]

CN1CCC[C@H]1c1cccnc1 [NICOTINE]
Not Active: IC50 [1] | IC50 [2] | IC50 [3] | IC50 [4] | IC50 [5] | Ki [5] | IC50 [6] | IC50 [7] | IC50 [8] | IC50 [9] | IC50 [10] | IC50 [11] | Ki [11]

CC(/C=C1\SC(=S)N(CC(=O)O)C1=O)=C\c1ccccc1
Not Active: IC50 [1] | IC50 [2] | IC50 [3] | IC50 [4] | IC50 [5] | Ki [5] | IC50 [6] | IC50 [7] | IC50 [8] | IC50 [9] | IC50 [10] | IC50 [11] | Ki [11]

CC(=O)O[C@]1(C(C)=O)CC[C@H]2[C@@H]3C=C(Cl)C4=CC(=O)CC[C@]4(C)[C@H]3CC[C@@]21C [CHLORMADINONE ACETATE]
Not Active: IC50 [1] | IC50 [2] | IC50 [3] | IC50 [4] | IC50 [5] | Ki [5] | IC50 [6] | IC50 [7] | IC50 [8] | IC50 [9] | IC50 [10] | IC50 [11] | Ki [11]

CCCc1cc(=O)[nH]c(=S)[nH]1 [PROPYLTHIOURACIL]
Not Active: IC50 [1] | IC50 [2] | IC50 [3] | IC50 [4] | IC50 [5] | Ki [5] | IC50 [6] | IC50 [7] | IC50 [8] | IC50 [9] | IC50 [10] | IC50 [11] | Ki [11]

Cc1[nH]cnc1CN1CCc2c(c3ccccc3n2C)C1=O [ALOSETRON]
Not Active: IC50 [1] | IC50 [2] | IC50 [3] | IC50 [4] | IC50 [5] | Ki [5] | IC50 [6] | IC50 [7] | IC50 [8] | IC50 [9] | IC50 [11] | Ki [11]
